{"source": "patent US7902185B2", "about": "“Treatment of neurodegenerative diseases using proteasome modulators” (ALS Therapy Development Foundation, Inc., priority 2002, dated 2011)", "key": {"cell proliferation": {"system": "cell proliferation", "conditions": "by arresting cells in the GI phase the cell cycle; cited from earlier work"}, "[1]": {"target": "LMP7 component of the immunoproteosome (Homo sapiens, UniProt P28062)", "conditions": "cited from earlier work"}, "[2]": {"system": "antigen processing and MHC I expression", "conditions": "cited from earlier work"}, "[3]": {"assay": "Maximal tolerated dose in the mouse studies", "type": "in vivo", "conditions": "dose of these studies is quite close to it", "experimental": "The dose of Ritonavi® in these studies (50 mg/Kg) is quite close to its maximal tolerated dose."}, "[4]": {"system": "IκB degradation and NF-κB mediated signal transduction", "conditions": "at high doses (approximately 100 μM); cited from earlier work"}, "[5]": {"conditions": "in vivo; cited from earlier work"}, "[6]": {"system": "SOD1 G93A mouse model of ALS", "assay": "Neurological score in SOD1 G93A mouse model of ALS", "type": "in vivo", "conditions": "for Neurological score significance (Males & Females combined): p value, mixed piece wise linear analysis", "experimental": "Neurological Scoring: From day 85 onward, neurological score was recorded on a 4-point scale: • 0=Normal reflex on the hind limbs (animal will splay its hind limbs when lifted by its tail) • 1=Abnormal reflex (Lack of splaying of hind limbs when animal is lifted by the tail). • 2=Abnormal reflex and visible evidence of paralysis • 3=Lack of reflex and total paralysis of hind limbs. • 4=Inability to right themselves when placed on the sides in 30 seconds or found dead. The animals are sacrificed at this stage if alive."}, "[7]": {"system": "SOD1 G93A mouse model of ALS", "assay": "Survival in SOD1 G93A mouse model of ALS;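 as to all read-outs here: heterozygous transgenic SOD1 G93A mice dosed from 60 days of age until death, checked daily for death, compared with vehicle-treated controls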", "conditions": "for Female (% effect on survival) / Female (Days) survival: females; for Combined (% effect on survival) / Combined (Days) survival: males+females; for Combined (Days) survival / Female (Days) survival / Male (Days) survival: mean; for Female (Days) survival / Male (Days) survival: treated; for Male (Days) survival / Male (% effect on survival): males", "description": "Model Description: The SOD1 G93A (high copy) mouse model is a mouse that carries 25 copies of the human G93A SOD mutation and is driven by the endogenous promoter.\nMurine ALS model: Heterozygous transgenic mice carrying the human SOD-1 (G93A) gene were obtained from Jackson Laboratory (Bar Harbor, Me., USA) and experiments were performed under IRB protocol at Massachusetts College of Pharmacy.\nControl Drug and Pharmacological Agent Preparation and Delivery: The drugs were formulated in suitable vehicles and control groups were given the same vehicle as treatment. […] Mice were treated from 60 days of age until death and were monitored daily for weight, neurological score and death.\nStatistical Analysis: Statistical analysis on the neurological score, body weight and survival was done by utilizing ANOVA, Kaplan Meier, t-test, Cox's proportional hazards regression model and mixed linear model methods. All statistical analysis was performed using standard procedures known in the art."}, "[8]": {"system": "experimental autoimmune encephalomyelitis (EAE)", "conditions": "previous animal efficacy studies, cited from earlier work"}, "[9]": {"system": "proteasomal chymotrypsin activity", "conditions": "at 5 uM concentration; cited from earlier work"}, "ALS patient": {"system": "ALS patient", "assay": "Ritonavir treatment of an ALS patient", "type": "in vivo, human", "conditions": "one patient", "source_text": "The patient was on ventilator and non-ambulatory. The patient was paralyzed below the waist except the neck region, and communicated with head movement using Morse code based computer keys. […] The biceps and forearms of the patient were paralyzed for several years.\nAfter administering Ritonavir® for nine months, the patient underwent neurological examination."}, "caspase 3": {"target": "T1, caspase 3 (Homo sapiens, UniProt P42574)", "T1 sequence (P42574 29-277)": "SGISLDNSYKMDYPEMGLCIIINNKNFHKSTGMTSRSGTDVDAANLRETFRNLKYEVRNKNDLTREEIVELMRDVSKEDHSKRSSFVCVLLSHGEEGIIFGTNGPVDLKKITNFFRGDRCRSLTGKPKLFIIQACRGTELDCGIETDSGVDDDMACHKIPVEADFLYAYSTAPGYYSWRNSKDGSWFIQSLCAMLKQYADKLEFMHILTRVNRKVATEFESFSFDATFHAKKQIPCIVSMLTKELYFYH", "conditions": "cited from earlier work"}, "AIDS patients": {"system": "AIDS patients", "conditions": "human, in vivo; cited from earlier work"}, "patients with ALS": {"system": "patients with ALS", "conditions": "Borras-Blasco et al. (1998); cited from earlier work"}, "proteasome": {"system": "proteasome", "conditions": "at very high concentrations; cited from earlier work"}, "[10]": {"conditions": "Combined Ritonavir studies (100% Litter matched), vs control"}, "[11]": {"conditions": "Combined Ritonavir studies (100% Litter matched)"}, "[12]": {"conditions": "study Ritonavir-1, 50 mg/Kg/day IP"}, "[13]": {"conditions": "study Ritonavir-2, 50 mg/Kg/day IP"}, "[14]": {"conditions": "study Ritonavir-3, 50 mg/Kg/day IP"}, "[15]": {"conditions": "after nine months of administration"}}, "note": "Read-outs that look alike come from different tables or passages of the source."}
{"molecule": "CC(C)c1nc(CN(C)C(=O)N[C@H](C(=O)N[C@@H](Cc2ccccc2)C[C@H](O)[C@H](Cc2ccccc2)NC(=O)OCc2cncs2)C(C)C)cs1", "note": "(relative stereo) [Ritonavir, 10-Hydroxy-2-methyl-5-(1-methylethyl)-4-thiazolyl]-3,6-dioxo-8,11-bis (phenylmethyl)-2,4,7,12-tetraazatridecan-13-oic acid, 5-thiazolylmethyl ester, [5S-(5R*,8R*,10R*,11R*)]]", "values": [{"measurement": "cell proliferation", "setting": "cell proliferation", "value": "suppress"}, {"measurement": "binding to the LMP7 component of the immunoproteosome", "setting": "[1]", "value": "binds"}, {"measurement": "antigen processing and MHC I expression", "setting": "[2]", "value": "decreased"}, {"measurement": "maximal tolerated dose", "setting": "[3]", "value": "~50", "unit": "mg/kg"}, {"measurement": "inhibition of IκB degradation and NF-κB mediated signal transduction", "setting": "[4]", "value": "inhibit"}, {"measurement": "plasma levels, female animals compared to males", "setting": "[5]", "value": "higher plasma levels"}, {"measurement": "Neurological score significance (Males & Females combined)", "setting": "[6]; study Ritonavir-1", "value": "p < 0.0001"}, {"measurement": "Neurological score significance (Males & Females combined)", "setting": "[6]; study Ritonavir-2", "value": "p < 0.0001"}, {"measurement": "Neurological score significance (Males & Females combined)", "setting": "[6]; study Ritonavir-3", "value": "p = 0.0007"}, {"measurement": "disease progression (neurological score), overall conclusion", "setting": "[6]; three separate studies", "value": "reproducible slowing"}, {"measurement": "Female (% effect on survival)", "setting": "[7]; [10]", "value": "−1", "unit": "%"}, {"measurement": "Combined (% effect on survival)", "setting": "[7]; [10]", "value": 2, "unit": "%"}, {"measurement": "Combined (Days) survival", "setting": "[7]; Combined Ritonavir studies (100% Litter matched), treated N=48", "value": 141, "unit": "days"}, {"measurement": "Female (Days) survival", "setting": "[7]; [11]", "value": 138, "unit": "days"}, {"measurement": "Male (Days) survival", "setting": "[7]; [11]", "value": 144, "unit": "days"}, {"measurement": "Female (% effect on survival)", "setting": "[7]; study Ritonavir-1, vs control", "value": "None"}, {"measurement": "Combined (% effect on survival)", "setting": "[7]; study Ritonavir-1, (mean treated-mean control)/mean control*100", "value": 5, "unit": "%"}, {"measurement": "Male (% effect on survival)", "setting": "[7]; study Ritonavir-1, vs control", "value": 10, "unit": "%"}, {"measurement": "Combined (Days) survival", "setting": "[7]; study Ritonavir-1, treated N=20, 50 mg/Kg/day IP", "value": 145, "unit": "days"}, {"measurement": "Female (Days) survival", "setting": "[7]; [12]", "value": 141, "unit": "days"}, {"measurement": "Male (Days) survival", "setting": "[7]; [12]", "value": 149, "unit": "days"}, {"measurement": "Female (% effect on survival)", "setting": "[7]; study Ritonavir-2, vs control", "value": 6, "unit": "%"}, {"measurement": "Combined (% effect on survival)", "setting": "[7]; study Ritonavir-2, vs control", "value": 7, "unit": "%"}, {"measurement": "Male (% effect on survival)", "setting": "[7]; study Ritonavir-2, vs control", "value": 8, "unit": "%"}, {"measurement": "Combined (Days) survival", "setting": "[7]; study Ritonavir-2, treated N=18, 50 mg/Kg/day IP", "value": 149, "unit": "days"}, {"measurement": "Female (Days) survival", "setting": "[7]; [13]", "value": 144, "unit": "days"}, {"measurement": "Male (Days) survival", "setting": "[7]; [13]", "value": 153, "unit": "days"}, {"measurement": "Female (% effect on survival)", "setting": "[7]; study Ritonavir-3, vs control", "value": "−5", "unit": "%"}, {"measurement": "Combined (% effect on survival)", "setting": "[7]; study Ritonavir-3, vs control", "value": 2, "unit": "%"}, {"measurement": "Male (% effect on survival)", "setting": "[7]; study Ritonavir-3, vs control", "value": 7, "unit": "%"}, {"measurement": "Combined (Days) survival", "setting": "[7]; study Ritonavir-3, treated N=18, 50 mg/Kg/day IP", "value": 137, "unit": "days"}, {"measurement": "Female (Days) survival", "setting": "[7]; [14]", "value": 134, "unit": "days"}, {"measurement": "Male (Days) survival", "setting": "[7]; [14]", "value": 139, "unit": "days"}, {"measurement": "survival, overall conclusion", "setting": "[7]; three separate studies", "value": "prolongation"}, {"measurement": "activity compared with positive control riluzole", "setting": "[7]; three studies, based on neurological score and survival data", "value": "more active"}, {"measurement": "effect in the EAE model", "setting": "[8]", "value": "protective"}, {"measurement": "effect in the EAE model", "setting": "[8]; listed as pharmacological agent", "value": "prevented the development"}, {"measurement": "inhibition of proteasomal chymotrypsin activity", "setting": "[9]", "value": "inhibition"}, {"measurement": "therapeutic effects in an ALS patient", "setting": "ALS patient; 400 mg/day for about nine months", "value": "ameliorating the effects of ALS, slowing progression of the disease, and improving survival"}, {"measurement": "time until beneficial therapeutic effects were experienced", "setting": "ALS patient; 400 mg/day", "value": "after three weeks"}, {"measurement": "diaphragm strength (neurological examination)", "setting": "ALS patient; [15]", "value": "gained enough strength to dislodge a tracheostomy cuff when sneezing"}, {"measurement": "pectoral muscle strength", "setting": "ALS patient; [15]", "value": "gained significant strength"}, {"measurement": "swallowing (neurological examination)", "setting": "ALS patient; [15]", "value": "able to swallow"}, {"measurement": "muscles that had been paralyzed for years", "setting": "ALS patient; after treatment", "value": "again under conscious control and showed electrical nerve activity"}, {"measurement": "activity of caspase 3", "setting": "caspase 3", "value": "inhibit"}, {"measurement": "toleration in AIDS patients", "setting": "AIDS patients", "value": "good toleration"}]}
{"molecule": "Nc1nc2ccc(OC(F)(F)F)cc2s1", "note": "[Riluzole]", "values": [{"measurement": "muscular strength of ALS patients", "setting": "patients with ALS", "value": "does not appear to provide an improvement"}]}
{"molecule": "CC(C)(C)NC(=O)[C@@H]1C[C@@H]2CCCC[C@@H]2CN1C[C@@H](O)[C@H](Cc1ccccc1)NC(=O)[C@H](CC(N)=O)NC(=O)c1ccc2ccccc2n1", "note": "[saquinavir]", "values": [{"measurement": "alteration of proteasome activity", "setting": "proteasome", "value": "alters proteasome activity"}]}
